≈ marks a conversion by molar mass, not a printed value. Calls of active or inactive are those of the source. No cut-off for these calls is given here.

The values below come from ChEMBL document CHEMBL3608220, “Isolation and structure elucidation of bioactive compounds from the roots of the Tunisian Ononis angustissima L” (Bioorg Med Chem Lett, 2015).

Data set [1] can be described thus: Antioxidant activity assessed as DPPH radical scavenging activity after 30 mins. The class given is physicochemical.
A short description of data set [2]: Cytotoxicity against rat PC12 cells assessed as cell viability at 30 uM after 24 hrs by MTT assay. The class given is cell-based. Particulars: pc-12, 24 h.
Data set [3] is described as follows: Cytotoxicity against rat PC12 cells assessed as cell viability at 150 uM after 24 hrs by MTT assay relative to control. The class given is cell-based. The following applies: pc-12, 24 h.
Data set [4] is described as follows: Cytotoxicity against rat PC12 cells assessed as cell viability at 75 uM after 24 hrs by MTT assay relative to control. The class given is cell-based. Particulars: pc-12, 24 h.
In data set [5] the test system is PC-12. The data set can be described thus: Neuroprotective activity against amyloid beta (25 to 35)-induced toxicity in rat PC12 cells assessed as increase in cell viability after 24 hrs by MTT assay. The class given is functional, cell-based.
The nature of data set [6]: (§1) Neuroprotective activity against amyloid beta (25 to 35)-induced toxicity in rat PC12 cells assessed as increase in cell viability at 75 uM after 24 hrs by MTT assay relative to control. The class given is functional, PC-12.
Data set [7] is described as follows: (§2) Neuroprotective activity against amyloid beta (25 to 35)-induced toxicity in rat PC12 cells assessed as increase in cell viability at 30 uM after 24 hrs by MTT assay relative to control. The class given is functional, PC-12.
Data set [8] in a line: Antioxidant activity assessed as reduction of Fe3+ to Fe2+ after 20 mins. The class given is physicochemical.
Data set [9] in a line: Antioxidant activity assessed as ABTS radical scavenging activity after 6 mins. The class given is physicochemical.
Data set [10] has as its system PC-12. The description is as §1. The class given is functional.
Data set [11] relates to PC-12. The description is as §2. The class given is functional.

Take `Oc1ccc2c(c1)OC[C@H]1c3cc4c(cc3O[C@@H]21)OCO4` [MAACKIAIN]: in data set [1], the IC50 is 24.48 µg/mL (≈ 86.1 µM). In addition, the Activity result in data set [2] was “Non-toxic”; in [3] it was “Toxic”; in data set [4], “Non-toxic”; with PC-12 [5], “Dose-dependent effect”; in [6] it was 15%; in [7] it was 5%.
Consider `O=C1C=C(c2ccc(O)cc2O[C@@H]2O[C@H](CO)[C@@H](O)[C@H](O)[C@H]2O)C(Cc2ccc(O)cc2)O1` (some centres undefined), for which the results for the IC50 in [1], in data set [8] and in [9] were 21.43 µg/mL (≈ 46.5 µM), 39.81 µg/mL (≈ 86.5 µM) and 46.72 µg/mL (≈ 101 µM), respectively. Also, the Activity entry in data set [2] was “Non-toxic”; in [3], “Toxic”; in data set [4], “Non-toxic”. The result with PC-12 [10] and in the data set with PC-12 [11] was inactive.
On to `COc1ccc2c(c1)O[C@H]1c3ccc(O)cc3OC[C@@H]21`, for which the IC50 in [1] came to 45.91 µg/mL (≈ 170 µM); in data set [8], 82.37 µg/mL (≈ 305 µM); in data set [9], 86.29 µg/mL (≈ 319 µM). Moreover, the Activity result in data set [2] is “Non-toxic”; in [3] it was “Toxic”; in data set [4] it was “Non-toxic”; in the data set with PC-12 [5], “Dose-dependent effect”; in data set [6], 30%; in [7], 18%.
With `O=C(O)CC(=O)OC[C@H]1O[C@@H](Oc2ccc3c(c2)OCC2c4cc5c(cc4OC32)OCO5)[C@H](O)[C@@H](O)[C@@H]1O` (some centres undefined), the IC50 was found to be 25.93 µg/mL (≈ 48.7 µM) in data set [1], 64.31 µg/mL (≈ 121 µM) in [8] and 60.64 µg/mL (≈ 114 µM) in data set [9].
With `COc1cc(O[C@@H]2O[C@H](CO)[C@@H](O)[C@H](O)[C@H]2O)c(O)cc1-c1coc2cc(O)ccc2c1=O`, the IC50 in data set [1] was determined as 20.45 µg/mL (≈ 44.2 µM).
Take `O=C1C=C(c2ccc(O)cc2O)C(Cc2ccc(O)cc2)O1` (centres undefined): the IC50 in data set [1] was 19.53 µg/mL (≈ 65.5 µM); in data set [8], 38.52 µg/mL (≈ 129 µM); in data set [9], 28.29 µg/mL (≈ 94.8 µM). The Activity entry in data set [2] is listed as “Non-toxic”; in data set [3], “Toxic”; in data set [4], “Toxic”. In addition, the result in the data set with PC-12 [11] was inactive.
For the compound `OC[C@H]1O[C@@H](Oc2ccc3c(c2)OCC2c4cc5c(cc4OC32)OCO5)[C@H](O)[C@@H](O)[C@@H]1O` (some centres undefined), the IC50 came out at 28.06 µg/mL (≈ 62.9 µM) in data set [1], 70.37 µg/mL (≈ 158 µM) in data set [8] and 63.21 µg/mL (≈ 142 µM) in data set [9]. In addition, the Activity result in [2] is reported as “Non-toxic”; in [3], “Toxic”; in [4], “Toxic”. In addition, the outcome with PC-12 [11] was inactive.
With `COc1ccc(C2=CC(=O)OC2Cc2ccc(O)cc2)c(O[C@@H]2O[C@H](CO)[C@@H](O)[C@H](O)[C@H]2O)c1` (some centres undefined), the IC50 in data set [1] was determined as 25.67 µg/mL (≈ 54.1 µM); in data set [8], 46.93 µg/mL (≈ 98.9 µM); in data set [9], 61.39 µg/mL (≈ 129 µM). In addition, the Activity result in data set [2] is on record as “Non-toxic”; in data set [3] it was “Toxic”; in [4], “Toxic”. The result with PC-12 [11] was inactive.
Consider `COc1ccc(-c2coc3cc(O)ccc3c2=O)cc1` [FORMONONETIN], for which the figures for the IC50 in data set [1], in data set [8] and in data set [9] were 43.51 µg/mL (≈ 162 µM), 62.57 µg/mL (≈ 233 µM) and 77.42 µg/mL (≈ 289 µM), respectively.
Take `O=c1c(O)c(-c2ccc(O)c(O)c2)oc2cc(O)cc(O)c12` [QUERCETIN]: the IC50 in [1] was 4.89 µg/mL (≈ 16.2 µM); in [9], 6.94 µg/mL (≈ 23 µM).
With `Cc1cc(C(C)(C)C)c(O)c(C(C)(C)C)c1` [BUTYLATED HYDROXYTOLUENE], the IC50 was 9.23 µg/mL (≈ 41.9 µM) in data set [1] and 41.64 µg/mL (≈ 189 µM) in data set [8].
Take `COc1ccc(-c2coc3cc(O[C@@H]4O[C@H](CO)[C@@H](O)[C@H](O)[C@H]4O)ccc3c2=O)cc1` [ONONIN]: the IC50 in data set [1] is 34.17 µg/mL (≈ 79.4 µM); in [8] it was 57.21 µg/mL (≈ 133 µM); in data set [9], 71.3 µg/mL (≈ 166 µM).
